Results published in ChEMBL document CHEMBL1126016, “Inhibitors of protein kinase C. 1. 2,3-Bisarylmaleimides” (J Med Chem, 1992).

Experiments:
[1] = Inhibition of calcium/calmodulin-dependent protein kinase
Phosphorylase kinase = test: Inhibition of phosphorylase kinase.; format: protein-complex assay

COC(=O)[C@@]1(O)C[C@H]2O[C@]1(C)n1c3ccccc3c3c4c(c5c6ccccc6n2c5c31)C(=O)NC4 (single isomer, unassigned) [K-252A]
IC50 [1]: 270 nM | IC50 (Phosphorylase kinase): 1.7 nM
